Data taken from patent US5208343A, “Tetrahydropyridine oxime compounds” (Warner-Lambert Company, priority 1992, dated 1993).
pIC50: −log10 of the molar value.

Key:
sigma binding site = assay: Sigma binding affinity using [^3 H]-(+)-3-(3'-hydroxyphenyl) N (1'-propyl)piperidine ([^3 H]3PPP); settings: [^3 H]3PPP radioligand, in vitro
Procedure: (§1) Sigma binding affinities are measured using [^3 H]-(+)-3-(3'-hydroxyphenyl) N (1'-propyl)piperidine, referred to in the following Table I as 3PPP. This test is carried out according to the procedures of B. L. Largent, et al, Proc. Natl. Acad. Sci., USA, 1984; 81:5618. The affinity of the compounds of the present invention for dopamine receptors was determined in vitro with the dopamine antagonist [^3 H]spiperone according to the procedure of S. Urwyler, et al, J. Neurochem. 1986; 46:1058. The ability of the compounds to bind muscarinic antagonist sites was determined in vitro using [^3 H]-quinuclidinyl benzylate (RQNB) according to the procedure of M. Watson, et al, J. Pharmacol. Exp. Ther. 1986; 237:411.

[1] = test system: muscarinic antagonist sites; assay: Binding to muscarinic antagonist sites using [^3 H]-quinuclidinyl benzylate (RQNB); settings: in vitro
Procedure: as §1

dopamine receptors = assay: Affinity for dopamine receptors with the dopamine antagonist [^3 H]spiperone (RBSP); type: binding; settings: in vitro
Procedure: as §1

| Compound | pIC50 (sigma binding site) | RQNB % Inhib at 10^-6 M [1] [%] | pIC50 (dopamine receptors) |
| --- | --- | --- | --- |
| CCCN1CCC=C(CCC(=NO)c2ccc(OC)cc2)C1.O=C(O)C(=O)O [2(e)(b), 1-(4-Methoxyphenyl)-3-(1,2,5,6-tetrahydro-1-propyl-3-pyridinyl)-1-propanone oxime oxalate] | 8.62 | 9 | < 6.00 |
| CCCN1CC=CC(CCC(=NO)c2ccc(OC)cc2)C1.O=C(O)C(=O)O (stereo not drawn) [2(e)(a), 1-(4-Methoxyphenyl)-3-(1,2,3,6-tetrahydro-1-propyl-3-pyridinyl)-1-propanoneoxime oxalate] | 8.19 | 6 | < 6.00 |
| CCCN1CCC=C(CCC(=NO)c2ccccc2)C1.O=C(O)C(=O)O [1(e)(b), 1-Phenyl-3-(1,2,5,6-tetrahydro-1-propyl-3-pyridinyl)-1-propanone oxime oxalate] | 8.70 | 10 | < 6.00 |
| CCCN1CC=CC(CCC(=NO)c2ccccc2)C1.O=C(O)C(=O)O (stereo not drawn) [1(e)(a), 1-Phenyl-3-(1,2,3,6-tetrahydro-1-propyl-3-pyridinyl)-1-propanone oxime oxalate] | 8.68 | 27 | < 6.00 |
